Source: ChEMBL document CHEMBL5370543, “Discovery of 6-aryl-2-(3,4,5-trimethoxyphenyl)thiazole[3,2-b][1,2,4]triazoles as potent tubulin polymerization inhibitors” (Eur J Med Chem, 2023)

Tests used:
SGC-7901 [1] = test: Antiproliferative activity against human SGC-7901 cells assessed as cell growth inhibition incubated for 72 hrs by MTT assay; format: functional, cell-based; details: SGC-7901, 72 h
MCF7 = test: Antiproliferative activity against human MCF7 cells assessed as cell growth inhibition incubated for 72 hrs by MTT assay; format: functional, cell-based; details: MCF7, 72 h
HT-1080 = test: Antiproliferative activity against human HT-1080 cells assessed as cell growth inhibition incubated for 72 hrs by MTT assay; format: functional, cell-based; details: HT-1080, 72 h
Tubulin (Homo sapiens) = Tubulin (Homo sapiens) (UniProt P68371+Q9H4B7+P0DPH7+P68366+Q13509+Q71U36+P04350+Q3ZCM7+P07437+P68363+Q9BQE3+Q6PEY2+Q13885+Q9BVA1+Q9BUF5); test: Binding affinity to tubulin (unknown origin) at colchicine binding site assessed as tubulin-colchicine complex competition rate at 1.25 uM preincubated for 45 mins followed by colchicine addition by fluorescence based assay relative to control; format: protein-complex assay
4T1 = test: Antitumor activity against mouse 4T1 cells allografted in Balb/c mouse assessed as tumor weight at 5 mg/kg, iv administered every other day measured after 12 days (reference value: 448 mg); format: functional; details: time 12 day
[2] = Cytotoxicity against HUVEC cells assessed as cell growth inhibition incubated for 72 hrs by MTT assay; format: toxicity, cell-based; details: human
[3] = Selectivity index, ratio of IC50 for HUVEC cells to IC50 for human SGC-7901 cells; format: functional
SGC-7901 [4] = test: Induction of cell cycle arrest in human SGC-7901 cells assessed as accumulation at sub-G1 phase at 2 times IC50 incubated for 6 hrs by PI/RNase staining based flow cytometry (reference value: 6 %); format: functional
SGC-7901 [5] = test: Induction of cell cycle arrest in human SGC-7901 cells assessed as accumulation at sub-G1 phase at 2 times IC50 incubated for 12 hrs by PI/RNase staining based flow cytometry (reference value: 6 %); format: functional
SGC-7901 [6] = test: Induction of cell cycle arrest in human SGC-7901 cells assessed as accumulation at sub-G1 phase at 2 times IC50 incubated for 24 hrs by PI/RNase staining based flow cytometry (reference value: 6 %); format: functional
SGC-7901 [7] = test: Induction of cell cycle arrest in human SGC-7901 cells assessed as accumulation at sub-G1 phase at 2 times IC50 incubated for 48 hrs by PI/RNase staining based flow cytometry (reference value: 6 %); format: functional
SGC-7901 [8] = test: Induction of cell cycle arrest in human SGC-7901 cells assessed as accumulation at sub-G1 phase at 2 times IC50 incubated for 72 hrs by PI/RNase staining based flow cytometry (reference value: 6 %); format: functional
SGC-7901 [9] = test: Induction of cell cycle arrest in human SGC-7901 cells assessed as accumulation at G0/G1 phase at 2 times IC50 incubated for 6 hrs by PI/RNase staining based flow cytometry (reference value: 41 %); format: functional
SGC-7901 [10] = test: Induction of cell cycle arrest in human SGC-7901 cells assessed as accumulation at G0/G1 phase at 2 times IC50 incubated for 12 hrs by PI/RNase staining based flow cytometry (reference value: 41 %); format: functional
SGC-7901 [11] = test: Induction of cell cycle arrest in human SGC-7901 cells assessed as accumulation at G0/G1 phase at 2 times IC50 incubated for 24 hrs by PI/RNase staining based flow cytometry (reference value: 41 %); format: functional
SGC-7901 [12] = test: Induction of cell cycle arrest in human SGC-7901 cells assessed as accumulation at G0/G1 phase at 2 times IC50 incubated for 48 hrs by PI/RNase staining based flow cytometry (reference value: 41 %); format: functional
SGC-7901 [13] = test: Induction of cell cycle arrest in human SGC-7901 cells assessed as accumulation at G0/G1 phase at 2 times IC50 incubated for 72 hrs by PI/RNase staining based flow cytometry (reference value: 41 %); format: functional
SGC-7901 [14] = test: Induction of cell cycle arrest in human SGC-7901 cells assessed as accumulation at S phase at 2 times IC50 incubated for 6 hrs by PI/RNase staining based flow cytometry (reference value: 44 %); format: functional
SGC-7901 [15] = test: Induction of cell cycle arrest in human SGC-7901 cells assessed as accumulation at S phase at 2 times IC50 incubated for 12 hrs by PI/RNase staining based flow cytometry (reference value: 44 %); format: functional
SGC-7901 [16] = test: Induction of cell cycle arrest in human SGC-7901 cells assessed as accumulation at S phase at 2 times IC50 incubated for 24 hrs by PI/RNase staining based flow cytometry (reference value: 44 %); format: functional
SGC-7901 [17] = test: Induction of cell cycle arrest in human SGC-7901 cells assessed as accumulation at S phase at 2 times IC50 incubated for 48 hrs by PI/RNase staining based flow cytometry (reference value: 44 %); format: functional
SGC-7901 [18] = test: Induction of cell cycle arrest in human SGC-7901 cells assessed as accumulation at S phase at 2 times IC50 incubated for 72 hrs by PI/RNase staining based flow cytometry (reference value: 44 %); format: functional
SGC-7901 [19] = test: Induction of cell cycle arrest in human SGC-7901 cells assessed as accumulation at G2/M phase at 2 times IC50 incubated for 6 hrs by PI/RNase staining based flow cytometry (reference value: 9 %); format: functional
SGC-7901 [20] = test: Induction of cell cycle arrest in human SGC-7901 cells assessed as accumulation at G2/M phase at 2 times IC50 incubated for 12 hrs by PI/RNase staining based flow cytometry (reference value: 9 %); format: functional
SGC-7901 [21] = test: Induction of cell cycle arrest in human SGC-7901 cells assessed as accumulation at G2/M phase at 2 times IC50 incubated for 24 hrs by PI/RNase staining based flow cytometry (reference value: 9 %); format: functional
SGC-7901 [22] = test: Induction of cell cycle arrest in human SGC-7901 cells assessed as accumulation at G2/M phase at 2 times IC50 incubated for 48 hrs by PI/RNase staining based flow cytometry (reference value: 9 %); format: functional
SGC-7901 [23] = test: Induction of cell cycle arrest in human SGC-7901 cells assessed as accumulation at G2/M phase at 2 times IC50 incubated for 72 hrs by PI/RNase staining based flow cytometry (reference value: 9 %); format: functional

In the case of `COc1cc(-c2nc3scc(-c4ccccc4Cl)n3n2)cc(OC)c1OC`, the IC50 (SGC-7901 [1]) is reported as 4.47 µM, the IC50 (MCF7) is reported as 7.48 µM and the IC50 (HT-1080) is reported as 3.38 µM.
For `COc1ccc(/C=C\c2cc(OC)c(OC)c(OC)c2)cc1O`, the Activity (Tubulin (Homo sapiens)) was 23.8%.
Molecule `COc1cc(-c2nc3scc(-c4cc(F)cc(F)c4)n3n2)cc(OC)c1OC` has an IC50 (SGC-7901 [1]) of 0.61 µM, an IC50 (MCF7) of 3.86 µM and an IC50 (HT-1080) of 2.31 µM.
`COc1cc(-c2nc3scc(-c4ccc(F)c(F)c4)n3n2)cc(OC)c1OC` showed an IC50 (SGC-7901 [1]) of 8.11 µM, an IC50 (MCF7) of 4.97 µM and an IC50 (HT-1080) of 2.85 µM.
`COc1cc(-c2nc3scc(-c4ccc(Br)cc4)n3n2)cc(OC)c1OC` gave an IC50 (SGC-7901 [1]) of 5.82 µM, an IC50 (MCF7) of 6.88 µM and an IC50 (HT-1080) of 7.49 µM.
`COc1cc(-c2nc3scc(-c4ccc(C)cc4)n3n2)cc(OC)c1OC` gave an IC50 (SGC-7901 [1]) of 3.66 µM, an IC50 (MCF7) of 2.58 µM and an IC50 (HT-1080) of 1.51 µM.
For `COc1cc(-c2nc3scc(-c4cccc(Br)c4)n3n2)cc(OC)c1OC`, the IC50 (SGC-7901 [1]) was 0.62 µM, the IC50 (MCF7) was 3.46 µM and the IC50 (HT-1080) was 1.71 µM.
Molecule `Nc1ccn([C@@H]2O[C@H](CO)[C@@H](O)C2(F)F)c(=O)n1` [GEMCITABINE] has an Activity (4T1) of 17.02 mg.
Molecule `COc1cc(-c2nc3scc(-c4cccc(N)c4)n3n2)cc(OC)c1OC` has an IC50 (SGC-7901 [1]) of 0.82 µM, an IC50 (MCF7) of 3.61 µM and an IC50 (HT-1080) of 2.13 µM.
With `COc1cc(-c2nc3scc(-c4ccc(F)cc4)n3n2)cc(OC)c1OC` the IC50 (SGC-7901 [1]) was > 30 µM, the IC50 (MCF7) was > 30 µM and the IC50 (HT-1080) was > 30 µM.
For `COc1ccc(-c2csc3nc(-c4cc(OC)c(OC)c(OC)c4)nn23)cc1F`, the IC50 (SGC-7901 [1]) was 10 µM, the IC50 (MCF7) was 5.08 µM and the IC50 (HT-1080) was 3.79 µM.
`COc1cc(-c2nc3scc(-c4cccc(Cl)c4)n3n2)cc(OC)c1OC` showed an IC50 (SGC-7901 [1]) of 0.43 µM, an IC50 (MCF7) of 3.09 µM and an IC50 (HT-1080) of 1.53 µM.
With `COc1ccc(-c2csc3nc(-c4cc(OC)c(OC)c(OC)c4)nn23)cc1OC` the IC50 (SGC-7901 [1]) was 3.69 µM, the IC50 (MCF7) was 5.88 µM and the IC50 (HT-1080) was 11.7 µM.
With `COc1cc(-c2nc3scc(-c4ccc(Cl)cc4)n3n2)cc(OC)c1OC` the IC50 (SGC-7901 [1]) was 2.19 µM, the IC50 (MCF7) was 4.64 µM and the IC50 (HT-1080) was 3.75 µM.
With `COc1cc(-c2nc3scc(-c4ccc([N+](=O)[O-])cc4)n3n2)cc(OC)c1OC` the IC50 (SGC-7901 [1]) was 3.03 µM, the IC50 (MCF7) was > 30 µM and the IC50 (HT-1080) was 4.3 µM.
With `COc1cc(-c2nc3scc(-c4cccc(F)c4)n3n2)cc(OC)c1OC` the IC50 (SGC-7901 [1]) was 0.78 µM, the IC50 (MCF7) was 4.86 µM and the IC50 (HT-1080) was 2.74 µM.
In the case of `COc1cc(-c2nc3scc(-c4cccc([N+](=O)[O-])c4)n3n2)cc(OC)c1OC`, the IC50 (SGC-7901 [1]) is reported as 0.75 µM, the IC50 (MCF7) is reported as 3.13 µM and the IC50 (HT-1080) is reported as 1.5 µM.
Molecule `COc1cc(-c2nc3scc(-c4cc(C)cc(C)c4)n3n2)cc(OC)c1OC` has an IC50 (SGC-7901 [1]) of 0.55 µM, an IC50 (MCF7) of 5.41 µM and an IC50 (HT-1080) of 1.42 µM.
`COc1cc(-c2nc3scc(-c4ccccc4Br)n3n2)cc(OC)c1OC` gave an IC50 (SGC-7901 [1]) of 6.41 µM, an IC50 (MCF7) of 5.26 µM and an IC50 (HT-1080) of 1.36 µM.
In the case of `COc1ccc(-c2csc3nc(-c4cc(OC)c(OC)c(OC)c4)nn23)cc1`, the IC50 (SGC-7901 [1]) is reported as 6.19 µM, the IC50 (MCF7) is reported as 8.28 µM and the IC50 (HT-1080) is reported as 3.76 µM.
In the case of `COc1cccc(-c2csc3nc(-c4cc(OC)c(OC)c(OC)c4)nn23)c1`, the IC50 (SGC-7901 [1]) is reported as 0.94 µM, the IC50 (MCF7) is reported as 4.94 µM and the IC50 (HT-1080) is reported as 2.18 µM.
Work on `COc1cc2c(c(OC)c1OC)-c1ccc(OC)c(=O)cc1[C@@H](NC(C)=O)CC2` [COLCHICINE] yielded an IC50 (SGC-7901 [1]) of 0.11 µM, an IC50 (MCF7) of 0.068 µM and an IC50 (HT-1080) of 0.073 µM. For the same molecule, the IC50 at 72 h [2] was 0.21 µM, the “Ratio IC50” value [3] was 1.91 and the Activity (SGC-7901 [4]) was 9%. The Activity (SGC-7901 [5]) was 12%, the Activity (SGC-7901 [6]) was 14% and the Activity (SGC-7901 [7]) was 16%. It also gave an Activity (SGC-7901 [8]) of 41%, an Activity (SGC-7901 [9]) of 33% and an Activity (SGC-7901 [10]) of 20%. The Activity (SGC-7901 [11]) was 10%, the Activity (SGC-7901 [12]) was 0% and the Activity (SGC-7901 [13]) was 1%. For the same molecule, the Activity (SGC-7901 [14]) was 42%, the Activity (SGC-7901 [15]) was 16% and the Activity (SGC-7901 [16]) was 12%. It also gave an Activity (SGC-7901 [17]) of 12%, an Activity (SGC-7901 [18]) of 8% and an Activity (SGC-7901 [19]) of 16%. It also gave an Activity (SGC-7901 [20]) of 52%, an Activity (SGC-7901 [21]) of 64% and an Activity (SGC-7901 [22]) of 72%. It also gave an Activity (SGC-7901 [23]) of 50%.
Work on `COc1cc(-c2nc3scc(-c4ccccc4F)n3n2)cc(OC)c1OC` yielded an IC50 (SGC-7901 [1]) of 7.3 µM, an IC50 (MCF7) of 5.89 µM and an IC50 (HT-1080) of 1.65 µM.
In the case of `COc1cc(-c2nc3scc(-c4ccccc4)n3n2)cc(OC)c1OC`, the IC50 (SGC-7901 [1]) is reported as 0.88 µM, the IC50 (MCF7) is reported as 4.38 µM and the IC50 (HT-1080) is reported as 3.64 µM.
`COc1ccccc1-c1csc2nc(-c3cc(OC)c(OC)c(OC)c3)nn12` gave an IC50 (SGC-7901 [1]) of 7.25 µM, an IC50 (MCF7) of 4.99 µM and an IC50 (HT-1080) of 7.55 µM.
`COc1cc(-c2nc3scc(-c4ccc(C(F)(F)F)cc4)n3n2)cc(OC)c1OC` gave an IC50 (SGC-7901 [1]) of 4.09 µM, an IC50 (MCF7) of 12.2 µM and an IC50 (HT-1080) of 2.91 µM.
